The test system of experiment [1] is DLD1 (Colon) human tumor cell line. In words: MTT assay, DLD1. Format: cell-based. Here is the method: (§1) A549, DLD1, T47D and PC3 were purchased from ATCC (Manassas, Va.). MTT assay kit was purchased from Promega (Madison, Wis.). FK866 and NMN were purchased from Enzo Life Sciences (Farmingdale, N.Y.) and Sigma (St Louis, Mo.) respectively.
(§2) Additional MTT assays are show in FIGS. 11(A)-(D) and FIG. 12 for compounds (33)-(37).
(§3) The assay was performed according to the manufacturers protocol (CycLex NAMPT Colorimetric Assay Kit, MBL International Corp., Woburn, Mass.). The NAMPT assay was performed according manufacturers protocol. Briefly we used the “1-Step Assay Method” for which following reagents were mixed to make assay buffer and kept at ice before starting the assay: 10 μL each of 10× Nampt assay buffer, nicotinamide, PRPP, ATP and EtOH; 2 μL each of recombinant NMNAT1, WST-1, ADH, diaphorase and D2O. The Nampt inhibition assay was performed by mixing 2 μl of various concentrations (to make 1 pM-100 nM) of FK866 or (6) (or 2 μL DMSO as vehicle control) with the following: 2 μL recombinant Nampt and 36 μL D2O. The reaction was initiated by adding 60 μL of 1-Step Assay Buffer to each well and mixed thoroughly followed by incubation at 30° C. for 20 mins. After this period, the absorbance at 450 nm was measured and compared with the positive control. […] TABLE 4 lists measured Half-Maximal Inhibitory Concentrations (IC50) against Human Tumor Cell Lines A549 (Lung), DLD1 (Colon), and T47D (Breast).
(In general: Formazan colour is commonly taken as a measure of viable cells.)

The next experiment has as its system DLD1. The experiment can be described thus: Scratch test (wound healing) assay. Format: cell-based, human. The conditions noted are these: for inhibition of cancer cell migration: 1 nM test agent, 24 h, FIG. 9; for relative potencies of the compounds: wound healing experiments, consistent with cell viability assays. Here is the method: The antimigratory effects of compounds (5)-(7) were compared with FK866 by employing a wound healing or scratch test analysis using various cell cancer lines. The assay measures the ability of a drug to inhibit cancer cell migration across a gap “scratched” in a confluent layer of cells. The cells were imaged immediately after the formation of the wound and then incubated with 1 nM concentrations of each test agent. After 24 h, the wounds were imaged again and compared with a control group of untreated cells. […] The results of the wound healing experiments are consistent with those from the cell viability assays with regard to the relative potencies of the compounds (6)>(7)>(5)>FK866.

Experiment [2] deals with A549 human lung cancer cell line. The experiment can be described thus: MTT assay, A549. Format: cell-based. The conditions noted are these: A549 (Lung) human tumor cell line. The procedure: as §1, §2, §3
The subject of a further experiment is A549 cells. In words: Cell rescue assay with nicotinamide mononucleotide (NMN). Format: cell-based, human. The following applies: A549 cells treated with 10 nM agent; 1, 10 or 100 μM NMN; 72 h; MTT. Here is the method:
A549 cells were treated with 10 nM (1), (5), (6), or (7). Error bars represent the mean±SD. Cell viability was measured using the MTT assay. Each measurement was repeated 4 times.
Cell rescue assays were conducted using Nicotinamide Mononucleotide (NMN) as described by Busso et al. (Busso, N.; Karababa, M.; Nobile, M.; Rolaz, A.; Van Gool, F.; Galli, M.; Leo, O.; So, A.; De Smedt, T. Pharmacological inhibition of nicotinamide phosphoribosyltransferase/visfatin enzymatic activityidentifies a new inflammatory pathway linked to NAD. PLoS One 2008, […], e2267.) Briefly, A549 and DLD1 cells were plated at a density of 10,000 cells per well in 96 well plates for overnight. Cells were then treated with 10 nM concentrations of agents (1), (5)-(7). Simultaneously, concentrations of 1, 10 or 100 μM NMN were added to the cultures. Cultures were then continued for 72 h. MTT reagent was added to the cells after 72 h for a period of 3 h and then MTT crystals were solubilized using solubilization buffer. Readings were taken at 570 nm wavelength. Control cells were considered as 100% survival to plot the inhibition and rescue graph. The experiments were repeated four times.

Experiment [3] has as its system T47D (Breast) human tumor cell line. In words: MTT assay, T47D. The experiment is classed as cell-based. Here is the method: as §1, §2, §3

Where two headings read alike, the source gives them in different places.

For orientation: IC50 means the concentration at which inhibition is half-maximal. A low value points to inhibition by little substance.

Regarding “1-(4′-(Trans-3″-(3′″pyridyl)acrylamido)butyl)-1,7-dicarba-closo-dodecaborane [Compound 6]”, the half-inhibitory concentration (IC50) came out at 0.31 ± 0.01 nM in experiment [1], 0.41 ± 0.01 nM in experiment [2] and 0.32 ± 0.02 nM in experiment [3]. The “inhibition of cancer cell migration” value in the experiment with DLD1 is recorded as “highest potency”. In addition, the “relative potencies of the compounds” value in the experiment on DLD1 is “(6)>(7)>(5)>FK866”. Also, the “cell rescue by NMN” value in the experiment with A549 cells is recorded as “nearly complete rescue”.
For “1-(4′-(Trans-3″-(3′″-pyridyl)acrylamido)butyl)-1,12-dicarba-closo-dodecaborane [Compound 7]”, the IC50 in experiment [1] came to 2.2 ± 0.12 nM; in experiment [2] it was 0.99 ± 0.03 nM; in experiment [3], 0.58 ± 0.03 nM. Moreover, the “relative potencies of the compounds” value in the experiment on DLD1 was “(6)>(7)>(5)>FK866”. The “cell rescue by NMN” value in the experiment with A549 cells is “nearly complete rescue”.
As to `O=C(/C=C/c1cccnc1)NCCCCC1CCN(C(=O)c2ccccc2)CC1` [Compound 1, reference compound], the IC50 amounted to 3.14 ± 0.11 nM in experiment [1] (DLD-1), 1.62 ± 0.04 nM in experiment [2] and 3.2 ± 0.16 nM in experiment [3]. Moreover, in the experiment on DLD1, the “inhibition of cancer cell migration” value is “partially inhibited cell migration”. Further, in the experiment with DLD1, the “relative potencies of the compounds” value is recorded as “(6)>(7)>(5)>FK866”. Moreover, the “cell rescue by NMN” value with A549 cells is “nearly complete rescue”.
Regarding `O=C(/C=C/c1cccnc1)NCCC#CC12CC3CC(CC(C3)C1)C2` [Compound 4], the IC50 in experiment [1] (DLD-1) stood at 20.3 ± 0.44 nM; in experiment [2], 88.9 ± 1.1 nM; in experiment [3], 186 ± 4.1 nM.

The values above are taken from US9382267B2, “Small molecule inhibitors of nicotinamide phosphoribosyltransferase (NAMPT)” (The Curators of the University of Missouri, priority 2011, dated 2016).
